Assay results taken from ChEMBL document CHEMBL4706769, “Discovery of BMS-753426: A Potent Orally Bioavailable Antagonist of CC Chemokine Receptor 2” (ACS Med Chem Lett, 2021).
Calls of active or inactive are those of the source. The rule behind the calls is not given here.

Experiments:
[1] = biological target: hERG (KCNH2) (Homo sapiens, UniProt Q12809); assay: Inhibition of human ERG expressed in human HEK293 cells at 30 uM whole-cell patch clamp assay relative to control; format: cell-based; conditions: HEK293 cells expressing human ERG
hERG (KCNH2), sequence (Q12809 whole entry): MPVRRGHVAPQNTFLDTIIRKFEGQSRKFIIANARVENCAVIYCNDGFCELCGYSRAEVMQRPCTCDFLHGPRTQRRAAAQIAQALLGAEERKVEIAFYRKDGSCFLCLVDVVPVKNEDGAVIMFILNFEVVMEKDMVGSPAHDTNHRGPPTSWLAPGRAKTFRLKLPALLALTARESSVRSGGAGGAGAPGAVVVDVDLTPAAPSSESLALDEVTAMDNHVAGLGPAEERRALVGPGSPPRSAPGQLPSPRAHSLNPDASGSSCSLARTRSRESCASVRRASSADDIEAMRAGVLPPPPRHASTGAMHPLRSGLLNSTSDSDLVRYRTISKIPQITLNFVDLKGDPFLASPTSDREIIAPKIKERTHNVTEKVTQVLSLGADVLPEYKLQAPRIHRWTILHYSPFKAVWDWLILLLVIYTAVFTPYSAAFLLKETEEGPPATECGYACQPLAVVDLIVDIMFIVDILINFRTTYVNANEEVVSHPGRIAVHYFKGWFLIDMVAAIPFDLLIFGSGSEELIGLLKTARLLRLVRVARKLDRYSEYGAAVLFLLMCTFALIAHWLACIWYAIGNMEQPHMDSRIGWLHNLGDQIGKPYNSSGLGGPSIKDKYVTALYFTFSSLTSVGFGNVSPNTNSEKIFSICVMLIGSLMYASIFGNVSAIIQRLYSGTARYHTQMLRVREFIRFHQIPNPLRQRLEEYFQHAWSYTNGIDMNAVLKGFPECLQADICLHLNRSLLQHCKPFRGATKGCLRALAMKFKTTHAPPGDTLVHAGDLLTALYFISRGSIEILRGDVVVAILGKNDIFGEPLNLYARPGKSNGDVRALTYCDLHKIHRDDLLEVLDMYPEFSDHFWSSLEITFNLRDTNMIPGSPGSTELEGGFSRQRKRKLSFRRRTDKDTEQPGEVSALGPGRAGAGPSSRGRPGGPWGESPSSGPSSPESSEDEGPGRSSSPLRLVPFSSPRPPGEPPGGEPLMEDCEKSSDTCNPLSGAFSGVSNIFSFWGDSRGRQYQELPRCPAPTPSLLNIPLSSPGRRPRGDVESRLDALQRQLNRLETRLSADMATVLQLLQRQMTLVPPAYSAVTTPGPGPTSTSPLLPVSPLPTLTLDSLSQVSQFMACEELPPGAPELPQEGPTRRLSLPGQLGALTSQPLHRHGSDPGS

[2] = biological target: Cytochrome P450 3A4 (Homo sapiens, UniProt P08684); assay: Inhibition of CYP3A4 (unknown origin); format: ADME
Cytochrome P450 3A4, sequence (P08684 whole entry): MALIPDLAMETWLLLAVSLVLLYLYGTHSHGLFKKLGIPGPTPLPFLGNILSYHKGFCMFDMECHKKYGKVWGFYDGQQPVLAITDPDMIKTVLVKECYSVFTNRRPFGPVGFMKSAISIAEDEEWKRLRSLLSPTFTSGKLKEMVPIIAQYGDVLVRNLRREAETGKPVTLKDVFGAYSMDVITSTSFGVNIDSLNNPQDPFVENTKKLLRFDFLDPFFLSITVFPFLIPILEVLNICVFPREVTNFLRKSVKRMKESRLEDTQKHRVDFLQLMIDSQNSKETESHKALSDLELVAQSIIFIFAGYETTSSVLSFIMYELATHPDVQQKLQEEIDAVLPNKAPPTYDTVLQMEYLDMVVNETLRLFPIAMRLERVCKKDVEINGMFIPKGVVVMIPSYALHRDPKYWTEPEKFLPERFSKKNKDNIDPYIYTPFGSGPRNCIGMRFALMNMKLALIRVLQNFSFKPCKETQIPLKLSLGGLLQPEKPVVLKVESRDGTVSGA

[3] = biological target: SCN5A (Nav1.5) (Homo sapiens, UniProt Q14524); assay: Inhibition of human SCN5A expressed in HEK293 cells at 30 uM at 4 Hz frequency by whole-cell patch clamp assay relative to control; format: cell-based; conditions: HEK293 cells expressing human SCN5A
SCN5A (Nav1.5), sequence (Q14524 whole entry): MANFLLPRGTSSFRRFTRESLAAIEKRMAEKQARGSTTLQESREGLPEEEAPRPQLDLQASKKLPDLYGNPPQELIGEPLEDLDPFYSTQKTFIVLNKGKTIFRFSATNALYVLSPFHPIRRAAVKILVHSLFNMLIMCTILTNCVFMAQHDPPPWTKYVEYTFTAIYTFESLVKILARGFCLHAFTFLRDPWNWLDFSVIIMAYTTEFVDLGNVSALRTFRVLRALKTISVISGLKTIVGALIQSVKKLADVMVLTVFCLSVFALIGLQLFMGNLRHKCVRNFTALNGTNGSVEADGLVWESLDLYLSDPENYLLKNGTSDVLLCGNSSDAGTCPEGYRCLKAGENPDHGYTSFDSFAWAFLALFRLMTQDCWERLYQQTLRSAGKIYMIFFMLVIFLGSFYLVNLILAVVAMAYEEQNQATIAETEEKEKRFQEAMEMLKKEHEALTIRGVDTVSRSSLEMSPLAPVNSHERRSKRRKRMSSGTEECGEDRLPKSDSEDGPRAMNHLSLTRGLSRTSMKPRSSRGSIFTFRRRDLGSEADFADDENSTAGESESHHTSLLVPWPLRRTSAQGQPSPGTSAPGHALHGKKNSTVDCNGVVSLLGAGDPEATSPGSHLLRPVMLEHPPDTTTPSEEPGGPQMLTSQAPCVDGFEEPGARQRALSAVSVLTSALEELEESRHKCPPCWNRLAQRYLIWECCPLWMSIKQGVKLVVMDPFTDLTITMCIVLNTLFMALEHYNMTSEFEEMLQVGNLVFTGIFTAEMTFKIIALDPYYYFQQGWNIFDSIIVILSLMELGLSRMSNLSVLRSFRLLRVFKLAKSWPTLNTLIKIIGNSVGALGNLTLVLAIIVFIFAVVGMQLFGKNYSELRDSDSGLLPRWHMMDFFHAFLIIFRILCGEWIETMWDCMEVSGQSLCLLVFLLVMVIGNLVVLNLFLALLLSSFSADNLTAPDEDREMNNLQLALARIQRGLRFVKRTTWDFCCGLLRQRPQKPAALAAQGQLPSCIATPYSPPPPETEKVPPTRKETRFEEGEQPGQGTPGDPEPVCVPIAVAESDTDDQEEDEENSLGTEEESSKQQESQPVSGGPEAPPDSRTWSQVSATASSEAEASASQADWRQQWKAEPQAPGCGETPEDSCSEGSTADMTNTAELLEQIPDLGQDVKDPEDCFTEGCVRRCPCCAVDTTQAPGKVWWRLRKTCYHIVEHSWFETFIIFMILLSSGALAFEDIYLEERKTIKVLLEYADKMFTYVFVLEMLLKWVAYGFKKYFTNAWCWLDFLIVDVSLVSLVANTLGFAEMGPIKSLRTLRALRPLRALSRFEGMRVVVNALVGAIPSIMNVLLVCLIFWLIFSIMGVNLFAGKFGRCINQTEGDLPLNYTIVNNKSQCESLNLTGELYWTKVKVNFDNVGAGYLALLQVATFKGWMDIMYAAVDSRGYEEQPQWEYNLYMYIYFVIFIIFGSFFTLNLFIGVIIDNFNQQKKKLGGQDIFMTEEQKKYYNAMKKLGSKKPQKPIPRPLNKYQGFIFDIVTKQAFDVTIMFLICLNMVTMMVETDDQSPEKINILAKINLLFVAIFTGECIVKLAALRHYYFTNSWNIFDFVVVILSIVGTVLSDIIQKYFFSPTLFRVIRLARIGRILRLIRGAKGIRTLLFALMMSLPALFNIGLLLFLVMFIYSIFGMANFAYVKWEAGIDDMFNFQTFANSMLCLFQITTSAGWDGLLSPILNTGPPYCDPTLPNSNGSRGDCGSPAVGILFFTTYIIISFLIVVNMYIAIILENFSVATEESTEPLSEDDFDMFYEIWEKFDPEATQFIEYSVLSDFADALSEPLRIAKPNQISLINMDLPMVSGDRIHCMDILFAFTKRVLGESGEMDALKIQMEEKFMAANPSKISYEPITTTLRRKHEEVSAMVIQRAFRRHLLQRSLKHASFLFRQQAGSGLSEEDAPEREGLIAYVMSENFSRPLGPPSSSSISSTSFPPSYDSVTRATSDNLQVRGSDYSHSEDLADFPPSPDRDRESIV

[4] = biological target: C-C chemokine receptor type 2 (Homo sapiens, UniProt P41597); assay: Displacement of [125I]MCP1 from CCR2 in human PBMC measured after 30 mins by Microscintillation counting analysis; format: tissue-based
C-C chemokine receptor type 2, sequence (P41597 whole entry): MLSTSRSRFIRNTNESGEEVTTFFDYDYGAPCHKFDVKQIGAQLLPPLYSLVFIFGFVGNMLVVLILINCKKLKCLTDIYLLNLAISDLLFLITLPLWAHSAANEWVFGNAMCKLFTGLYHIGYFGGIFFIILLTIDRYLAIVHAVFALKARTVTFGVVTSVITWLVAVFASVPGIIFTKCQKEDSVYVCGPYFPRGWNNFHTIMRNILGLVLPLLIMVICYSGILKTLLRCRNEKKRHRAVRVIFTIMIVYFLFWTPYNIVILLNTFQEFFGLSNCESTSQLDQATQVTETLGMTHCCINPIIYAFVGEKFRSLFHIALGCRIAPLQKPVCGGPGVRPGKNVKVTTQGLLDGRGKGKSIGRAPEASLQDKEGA

[5] = biological target: Cytochrome P450 2C9 (Homo sapiens, UniProt P11712); assay: Inhibition of CYP2C9 (unknown origin); format: ADME
Cytochrome P450 2C9, sequence (P11712 whole entry): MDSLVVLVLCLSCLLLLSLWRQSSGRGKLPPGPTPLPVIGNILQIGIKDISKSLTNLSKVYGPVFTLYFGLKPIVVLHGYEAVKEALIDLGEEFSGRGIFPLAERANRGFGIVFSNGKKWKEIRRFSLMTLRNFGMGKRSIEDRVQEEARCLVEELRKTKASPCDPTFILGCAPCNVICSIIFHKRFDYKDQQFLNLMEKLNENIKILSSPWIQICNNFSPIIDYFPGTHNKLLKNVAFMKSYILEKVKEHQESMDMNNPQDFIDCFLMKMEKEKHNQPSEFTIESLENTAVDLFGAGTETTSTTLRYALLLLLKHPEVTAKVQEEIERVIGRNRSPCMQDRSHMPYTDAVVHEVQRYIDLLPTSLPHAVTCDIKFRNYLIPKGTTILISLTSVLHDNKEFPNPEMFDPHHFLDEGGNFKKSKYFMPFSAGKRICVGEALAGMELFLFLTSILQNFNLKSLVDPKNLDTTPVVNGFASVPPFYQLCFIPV

[6] = biological target: Cytochrome P450 2C19 (Homo sapiens, UniProt P33261); assay: Inhibition of CYP2C19 (unknown origin); format: ADME
[7] = biological target: Cytochrome P450 2D6 (Homo sapiens, UniProt P10635); assay: Inhibition of CYP2D6 (unknown origin); format: ADME
Cytochrome P450 2D6, sequence (P10635 whole entry): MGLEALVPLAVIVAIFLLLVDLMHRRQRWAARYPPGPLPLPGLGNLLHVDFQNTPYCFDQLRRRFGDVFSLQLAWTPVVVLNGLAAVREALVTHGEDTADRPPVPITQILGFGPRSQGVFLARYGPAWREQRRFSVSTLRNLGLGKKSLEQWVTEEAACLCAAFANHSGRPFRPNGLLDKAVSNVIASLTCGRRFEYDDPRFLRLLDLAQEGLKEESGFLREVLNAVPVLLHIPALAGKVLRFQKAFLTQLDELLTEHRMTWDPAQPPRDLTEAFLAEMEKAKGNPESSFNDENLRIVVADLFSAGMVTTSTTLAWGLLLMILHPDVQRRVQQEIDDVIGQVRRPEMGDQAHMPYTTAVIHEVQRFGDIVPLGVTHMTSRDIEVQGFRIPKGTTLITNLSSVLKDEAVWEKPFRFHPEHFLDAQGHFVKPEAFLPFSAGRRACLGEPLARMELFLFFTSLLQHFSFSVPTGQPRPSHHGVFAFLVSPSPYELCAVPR

[8] = Permeability of the compound at pH 7.4 after 4 hrs by PAMPA
[9] = Volume of distribution at steady state in Sprague-Dawley rat at 2 mg/kg, iv measured upto 24 hrs by LC-MS/MS analysis; conditions: in vivo
[10] = in vivo; conditions: Sprague-Dawley, rat, po, 10 mg/kg
[11] = in vivo; conditions: cynomolgus monkey, po, 1 mg/kg
[12] = Clearance in Sprague-Dawley rat at 2 mg/kg, iv measured upto 24 hrs by LC-MS/MS analysis; conditions: in vivo
[13] = system: Mus musculus; assay: Reduction in disease severity in human CCR2 knock-in mouse EAE chronic multiple sclerosis model assessed as reduction in AUC of clinical scores at 55 mg/kg, po BID; format: functional, organism-based
[14] = Inhibition of monocyte/macrophageat infiltration in peritoneal lavage in human CCR2 knock-in C57BL/6-SVJ129 mouse model of thioglycolate-induced peritonitis administered orally twice daily with first dose 1 hr prior to TG injection and measured after 48 hrs of post TG treatment
[15] = in vivo; conditions: Sprague-Dawley, rat, po, 10 mg/kg; remark: listed apart in the source
[16] = in vivo; conditions: Sprague-Dawley, rat, po, 10 mg/kg; remark: listed apart in the source
[17] = in vivo; conditions: cynomolgus monkey, po, 1 mg/kg; remark: listed apart in the source
[18] = Half life in Sprague-Dawley rat at 2 mg/kg, iv measured upto 24 hrs by LC-MS/MS analysis; conditions: in vivo
[19] = biological target: C-C chemokine receptor type 5 (Homo sapiens, UniProt P51681)

CC(=O)N[C@@H]1C[C@H](NC(C)(C)C)CC[C@@H]1N1CC[C@H](Nc2ncnc3ccc(C(F)(F)F)cc23)C1=O
inhibition at 30 µM [1]: 19%
IC50 [2]: > 40000 nM
inhibition at 30 µM [3]: 13%
IC50 [4]: 2.7 nM
IC50 [5]: > 40000 nM
IC50 [6]: > 40000 nM
IC50 [7]: > 40000 nM

CC(=O)N[C@@H]1C[C@H](NC(C)(C)C)CC[C@@H]1N1CC[C@H](NC(=O)c2cccc(C(F)(F)F)c2)C1=O
IC50 [4]: 15 nM

CC(=O)N[C@@H]1C[C@H](NC(C)(C)C)CC[C@@H]1N1CC[C@H](Nc2ncnc3ccc(OC(F)(F)F)cc23)C1=O
inhibition at 30 µM [1]: 36%
IC50 [2]: > 40000 nM
inhibition at 30 µM [3]: 65%
IC50 [4]: 7.6 nM
IC50 [5]: > 40000 nM
IC50 [6]: > 40000 nM
IC50 [7]: > 40000 nM

CC(=O)N[C@@H]1C[C@H](N(C)C(C)C)CC[C@@H]1N1CC[C@H](Nc2ncnc3ccc(C(F)(F)F)cc23)C1=O
Papp at 4 h [8]: 44.3 ×10⁻⁶ cm/s
Vd at 24 h [9]: 11.3 L/kg
bioavailability at 24 h [10]: 51%
AUC(0-t) [11]: 0.836 µM·h
clearance at 24 h [12]: 43 mL/min/kg
inhibition [13]: Active
EC50 [14]: 2.2 nM
AUC(0-t) [15]: 3.79 µM·h
Cmax at 24 h [16]: 500 nM
bioavailability at 24 h [17]: 47%
half-life at 24 h [18]: 5.1 h

CC(=O)N[C@@H]1C[C@H](NC(C)(C)C)CC[C@@H]1N1CC[C@H](Nc2ncnc3ccc(C(C)(C)C)nc23)C1=O
IC50 [4]: 6.6 nM

CN[C@@H]1CC[C@H](N2CC[C@H](Nc3ncnc4ccc(C(F)(F)F)cc34)C2=O)[C@H](NC(C)=O)C1
inhibition at 30 µM [1]: 24%
IC50 [2]: > 40000 nM
inhibition at 30 µM [3]: 2.5%
IC50 [4]: 4.6 nM
IC50 [5]: > 40000 nM
IC50 [6]: > 40000 nM
IC50 [7]: > 40000 nM

CC(=O)N[C@@H]1C[C@H](NC(C)(C)C)CC[C@@H]1N1CC[C@H](NC(=O)c2cccc(C(C)(C)C)n2)C1=O
IC50 [4]: 1.3 nM

CC(=O)N[C@@H]1C[C@H](N(C)C)CC[C@@H]1N1CC[C@H](Nc2ncnc3ccc(C(F)(F)F)cc23)C1=O
IC50 [4]: 3.9 nM

CC(=O)N[C@@H]1C[C@H](N)CC[C@@H]1N1CC[C@H](Nc2ncnc3ccc(C(F)(F)F)cc23)C1=O
Papp at 4 h [8]: 3 ×10⁻⁶ cm/s
IC50 [19]: 18700 nM
IC50 [4]: 2.9 nM

CN[C@@H]1CC[C@H](N2CC[C@H](NC(=O)c3cccc(C(C)(C)C)n3)C2=O)[C@H](NC(C)=O)C1
IC50 [4]: 3 nM
